The source of these data is US4539322A, “Dihydropyridine derivatives and their use in treating heart conditions and hypertension” (Pfizer Inc., priority 1982, dated 1985).

The test system of this assay is rat aorta. Kind of assay: Inhibition of calcium-induced contraction of isolated rat aorta strips (reduction of response to added calcium chloride in K+-containing saline). Conditions: 0.75 h; spirally cut rat aorta strips, 45 millimolar potassium, calcium 2 millimolar, test repeated with compound after 45 minutes; read-out: molar concentration of the compounds required to reduce the response by 50% (IC50). It is filed as cell-based. How it is done: The ability of the compounds to inhibit the movement of calcium into the cell is shown by their effectiveness in reducing the response of isolated heart tissue to an increase in calcium ion concentration in vitro. The test is performed by mounting spirally cut strips of rat aorta with one end fixed and the other attached to a force transducer. The tissue is immersed in a bath of physiological saline solution containing potassium ion s at a concentration of 45 millimolar and no calcium. Calcium chloride is added to the bath with a pipette to give a final calcium ion concentration of 2 millimolar. The change in tension caused by the resulting contraction of the tissue is noted. The bath is drained and replaced with fresh saline solution and, after 45 minutes, the test is repeated with the particular compound under test present in the saline solution. The concentration of compound required to reduce the response by 50% is recorded.

Each structure is given as a SMILES string. Counter-ions that a name gives are not always drawn.

Take `CCOC(=O)C(=O)N1CCN(CCOCC2=C(C(=O)OCC)C(c3ccccc3Cl)C(C(=O)OC)=C(C)N2)CC1` (stereo not shown) [Example 45]: the IC50 stood at 0.01 µM. Consider `CCOC(=O)C1=C(COCCN2CCN(C(=O)NC)CC2)NC(C)=C(C(=O)OC)C1c1ccccc1Cl` (stereo not shown) [Example 13], for which the IC50 turned out to be 0.006 µM. The same measure for `CCOC(=O)C1=C(COCCN2CCN(C(=NC#N)NCCN(C)C)CC2)NC(C)=C(C(=O)OC)C1c1ccccc1Cl` (stereo not shown) [Example 6]: 0.1 µM. On to `CCOC(=O)C1=C(COCCN2CCN(C(=O)Nc3ccc(F)cc3)CC2)NC(C)=C(C(=O)OC)C1c1ccccc1Cl` (stereo not shown) [Example 21], for which the IC50 came out at 0.0219 µM. The same measure for `CCOC(=O)C1=C(COCCN2CCN(C(N)=NC#N)CC2)NC(C)=C(C(=O)OC)C1c1ccccc1Cl` (stereo not shown) [Example 5]: 0.1 µM. The same measure for `CCOC(=O)C1=C(COCCN2CCN(C(=O)Nc3ccc(C(=O)OCC)cc3)CC2)NC(C)=C(C(=O)OC)C1c1ccccc1Cl` (stereo not shown) [Example 20]: 0.0331 µM; for `CCOC(=O)C1=C(COCCN2CCN(S(N)(=O)=O)CC2)NC(C)=C(C(=O)OC)C1c1ccccc1Cl` (stereo not shown) [Example 53, 4-(2-chlorophenyl)-3-ethoxycarbonyl-5-methoxycarbonyl-6-methyl-2-[2-(4-sulphamoylpiperazin-1-yl)ethoxymethyl]-1,4-dihydropyridine, hydrochloride hydrate]: 0.0417 µM; for `CCOC(=O)C1=C(COCCN2CCN(C(=O)c3cccnc3)CC2)NC(C)=C(C(=O)OC)C1c1ccccc1Cl` (stereo not shown) [Example 48]: 0.0132 µM.

As for `CCOC(=O)C1=C(COCCN2CCN(C(=O)NC3CCCCC3)CC2)NC(C)=C(C(=O)OC)C1c1ccccc1Cl` (stereo not shown) [Example 23], the IC50 was found to be 0.00851 µM. The value for `CCOC(=O)C1=C(COCC(C)(C)N2CCNCC2)NC(C)=C(C(=O)OC)C1c1ccccc1Cl` (stereo not shown) [Example 56] was 0.34 µM; that for `CCOC(=O)C1=C(COCCN2CCN(C(=O)N3CCOCC3)CC2)NC(C)=C(C(=O)OC)C1c1ccccc1Cl` (stereo not shown) [Example 50] was 0.0059 µM.

On to `CCOC(=O)C1=C(COCCN2CCN(S(C)(=O)=O)CC2)NC(C)=C(C(=O)OC)C1c1ccccc1Cl` (stereo not shown) [Example 43], for which the IC50 turned out to be 0.0158 µM. The same measure for `CCOC(=O)NC(=S)N1CCN(CCOCC2=C(C(=O)OCC)C(c3ccccc3Cl)C(C(=O)OC)=C(C)N2)CC1` (stereo not shown) [Example 11]: 0.0138 µM.
